Data: US12485169B2, “Compounds” (GREY WOLF THERAPEUTICS LIMITED, priority 2018, dated 2025)

Molecular target: T1, Purified ERAP1 (37-941)-10His (ERAP1) (Homo sapiens, UniProt Q9NZ08)
T1 construct: Purified ERAP1 (37-941)-10His (ERAP1)
Test: ERAP1 mediated hydrolysis of an amide substrate (10-mer inhibition assay), biochemical system
Details: 10-mer substrate, 23° C., 1 h, excitation 279 nm / emission 355 nm; read-out: IC50 vs Decapeptide WRVYEKC(Dnp)ALK-acid (where Dnp is Dinitrophenyl maleimide) (10-mer)
Protocol: However, as ERAP1 hydrolyses the N-terminal amide bond and tryptophan is released this internal quenching is lost and the reaction is monitored by the increase in tryptophan fluorescence over the course of the assay. For the purposes of this application this assay is referred to as the “10mer inhibition assay” and compound potencies are calculated and expressed as IC50 as would be familiar to a person skilled in the art.
Biological Assay 1: ERAP1 Mediated Hydrolysis of an Amide Substrate Measured in a Biochemical System
Decapeptide WRVYEKC(Dnp)ALK-acid (where Dnp is Dinitrophenyl maleimide) (10-mer) L-Leucine 7-amido-4-methylcoumarin (L-AMC)
12.5 μL ERAP1 enzyme in 1×AB was combined with 250 nL test compound in DMSO. […] For detection, plates were read at excitation 365 nm and emission 442 nm (L-AMC) or excitation 279 nm and emission 355 nm (10-mer).

T1 sequence (Q9NZ08 37-941): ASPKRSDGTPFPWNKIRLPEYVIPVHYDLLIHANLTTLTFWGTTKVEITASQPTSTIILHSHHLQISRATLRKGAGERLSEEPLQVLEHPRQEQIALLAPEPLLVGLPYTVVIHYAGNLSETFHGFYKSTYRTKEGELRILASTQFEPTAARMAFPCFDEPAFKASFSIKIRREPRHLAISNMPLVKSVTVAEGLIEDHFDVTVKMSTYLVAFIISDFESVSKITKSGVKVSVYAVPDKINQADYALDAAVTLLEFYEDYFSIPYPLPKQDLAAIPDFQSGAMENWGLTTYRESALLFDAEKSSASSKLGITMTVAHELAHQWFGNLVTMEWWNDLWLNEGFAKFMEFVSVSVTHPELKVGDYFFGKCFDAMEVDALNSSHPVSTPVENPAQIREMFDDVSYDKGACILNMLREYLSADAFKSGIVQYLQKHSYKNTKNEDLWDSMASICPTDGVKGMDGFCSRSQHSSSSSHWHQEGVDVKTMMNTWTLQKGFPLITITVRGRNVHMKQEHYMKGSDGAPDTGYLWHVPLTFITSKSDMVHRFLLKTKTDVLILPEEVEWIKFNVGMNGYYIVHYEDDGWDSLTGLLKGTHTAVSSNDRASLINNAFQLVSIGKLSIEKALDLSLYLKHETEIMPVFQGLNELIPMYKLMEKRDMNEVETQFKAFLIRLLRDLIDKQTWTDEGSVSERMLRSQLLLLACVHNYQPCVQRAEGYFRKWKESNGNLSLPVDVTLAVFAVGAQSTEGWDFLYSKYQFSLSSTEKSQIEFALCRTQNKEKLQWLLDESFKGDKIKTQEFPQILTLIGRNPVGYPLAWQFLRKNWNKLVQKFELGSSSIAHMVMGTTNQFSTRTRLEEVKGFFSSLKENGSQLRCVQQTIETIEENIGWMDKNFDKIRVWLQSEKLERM

IC50 [nM] | SMILES
> 5000 | CCc1ccc(C(=O)O)cc1S(=O)(=O)Nc1cc(C(F)(F)F)ccc1N1CCCCCC1 [Example 61, 3-(N-(2-(azepan-1-yl)-5-(trifluoromethyl)phenyl)sulfamoyl)-4-ethylbenzoic acid]
< 500 | Cc1ccc(C(=O)O)cc1S(=O)(=O)Nc1cc(C(F)(F)F)ccc1N1CCCCCC1 [Example 62, 3-(N-(2-(azepan-1-yl)-5-(trifluoromethyl)phenyl)sulfamoyl)-4-methylbenzoic acid]
< 5000 | COc1ccc(-c2nn[nH]n2)cc1NS(=O)(=O)c1cc(C(F)(F)F)ccc1N1CCCCC1 [Example 63, N-(2-methoxy-5-(tetrazol-5-yl)phenyl)-2-(piperidin-1-yl)-5-(trifluoromethyl) benzenesulfonamide]
< 500 | COc1ccc(C(=O)O)cc1S(=O)(=O)Nc1ccc(Cl)cc1N1CCCCC1 [Example 65, 3-(N-(4-chloro-2-(piperidin-1-yl)phenyl)sulfamoyl)-4-methoxybenzoic acid]
< 500 | COc1ccc(C(=O)O)cc1S(=O)(=O)Nc1cc(Cl)ccc1N1CCCCC1 [Example 66, 3-(N-(5-chloro-2-(piperidin-1-yl)phenyl)sulfamoyl)-4-methoxybenzoic acid]
< 500 | Cc1ccc(C(=O)O)cc1S(=O)(=O)Nc1cc(C(F)(F)F)ccc1N1CCCCC1 [Example 67, 4-methyl-3-(N-(2-(piperidin-1-yl)-5-(trifluoromethyl)phenyl)sulfamoyl)benzoic acid]
< 500 | COc1ccc(C(=O)O)cc1S(=O)(=O)Nc1cc(C(F)(F)F)ccc1N1CCCCCC1 [Example 68, 3-(N-(2-(azepan-1-yl)-5-(trifluoromethyl)phenyl)sulfamoyl)-4-methoxybenzoic acid]
< 5000 | Cc1ccc(S(=O)(=O)Nc2cc(C(F)(F)F)ccc2N2CCCCC2)cc1C(=O)O [Example 70, 2-methyl-5-(N-(2-(piperidin-1-yl)-5-(trifluoromethyl)phenyl)sulfamoyl)benzoic acid]
< 500 | COc1ccc(C(=O)O)cc1S(=O)(=O)Nc1cc(C(F)(F)F)ccc1N1CCOCC1 [Example 72, 4-methoxy-3-(N-(2-morpholino-5-(trifluoromethyl)phenyl)sulfamoyl)benzoic acid]
< 5000 | COc1ccc(C(=O)O)cc1S(=O)(=O)Nc1cc(C(F)(F)F)ccc1N1CCCC1 [Example 75, 4-methoxy-3-(N-(2-(pyrrolidin-1-yl)-5-(trifluoromethyl)phenyl)sulfamoyl)benzoic acid]
< 5000 | COc1ccc(C(=O)O)cc1S(=O)(=O)Nc1cc(C(F)(F)F)ccc1N(C)C [Example 77, 3-(N-(2-(dimethylamino)-5-(trifluoromethyl)phenyl)sulfamoyl)-4-methoxybenzoic acid]
< 5000 | O=C(O)c1cc(Cl)cc(S(=O)(=O)Nc2cc(C(F)(F)F)ccc2N2CCCCC2)c1 [Example 80, 3-chloro-5-(N-(2-(piperidin-1-yl)-5-(trifluoromethyl)phenyl)sulfamoyl)benzoic acid]
< 5000 | O=C(O)c1cc(S(=O)(=O)Nc2cc(C(F)(F)F)ccc2N2CCCCC2)ccc1Cl [Example 83, 2-chloro-5-(N-(2-(piperidin-1-yl)-5-(trifluoromethyl)phenyl)sulfamoyl)benzoic acid]
< 5000 | COc1ccc(C(=O)O)cc1S(=O)(=O)Nc1cc(C(F)(F)F)ccc1N1CCC(C)CC1 [Example 84, 4-methoxy-3-(N-(2-(4-methylpiperidin-1-yl)-5-(trifluoromethyl)phenyl)sulfamoyl)benzoic acid]
< 500 | O=C(O)c1ccc(Cl)c(S(=O)(=O)Nc2cc(C(F)(F)F)ccc2N2CCCCCC2)c1 [Example 86, 3-(N-(2-(azepan-1-yl)-5-(trifluoromethyl)phenyl)sulfamoyl)-4-chlorobenzoic acid]
< 500 | O=C(O)c1ccc(O)c(S(=O)(=O)Nc2cc(C(F)(F)F)ccc2N2CCCCC2)c1 [Example 161, 4-hydroxy-3-(N-(2-(piperidin-1-yl)-5-(trifluoromethyl)phenyl)sulfamoyl)benzoic acid]
< 5000 | COc1ccc(-c2nn[nH]n2)cc1S(=O)(=O)Nc1cc(C(F)(F)F)ccc1N1CCCCC1 [Example 171, 2-methoxy-N-(2-(piperidin-1-yl)-5-(trifluoromethyl)phenyl)-5-(tetrazol-5-yl)benzenesulfonamide]
< 500 | COc1ccc(C(=O)O)cc1S(=O)(=O)Nc1cc(C(F)(F)F)ccc1N1CCCC(O)C1 (stereo not drawn) [Example 177, 3-(N-(2-(3-hydroxypiperidin-1-yl)-5-(trifluoromethyl)phenyl)sulfamoyl)-4-methoxybenzoic acid]

IC50 [nM] | SMILES
< 5000 | COc1ccc(C(=O)O)cc1S(=O)(=O)Nc1cc(C(F)(F)F)ccc1N1CC[C@H](O)C1 [Example 178, (S)-3-(N-(2-(3-hydroxypyrrolidin-1-yl)-5-(trifluoromethyl)phenyl)sulfamoyl)-4-methoxybenzoic acid]
< 500 | COc1ccc(C(=O)O)cc1S(=O)(=O)Nc1cc(C(F)(F)F)ccc1N1CCCC(OC)C1 (stereo not drawn) [Example 179, 4-methoxy-3-(N-(2-(3-methoxypiperidin-1-yl)-5-(trifluoromethyl)phenyl)sulfamoyl)benzoic acid]
< 500 | CCOC1CCN(c2ccc(C(F)(F)F)cc2NS(=O)(=O)c2cc(C(=O)O)ccc2OC)CC1 [Example 180, 3-(N-(2-(4-ethoxypiperidin-1-yl)-5-(trifluoromethyl)phenyl)sulfamoyl)-4-methoxybenzoic acid]
< 500 | COc1ccc(C(=O)O)cc1S(=O)(=O)Nc1cc(C(F)(F)F)ccc1N1CCC(OC)CC1 [Example 181, 4-methoxy-3-(N-(2-(4-methoxypiperidin-1-yl)-5-(trifluoromethyl)phenyl)sulfamoyl)benzoic acid]
< 500 | COc1ccc(C(=O)O)cc1S(=O)(=O)Nc1cc(C#N)ccc1N1CCCCC1 [Example 182, 3-(N-(5-cyano-2-(piperidin-1-yl)phenyl)sulfamoyl)-4-methoxybenzoic acid]
> 5000 | CCc1ccc(C(=O)O)cc1S(=O)(=O)Nc1cc(C(F)(F)F)ccc1N1CC(O)C1 [Example 183, 4-ethyl-3-(N-(2-(3-hydroxyazetidin-1-yl)-5-(trifluoromethyl)phenyl)sulfamoyl)benzoic acid]
< 500 | COc1ccc(C(=O)O)cc1S(=O)(=O)Nc1cc(C(F)(F)F)cc(F)c1N1CCCCC1 [Example 184, 3-(N-(3-fluoro-2-(piperidin-1-yl)-5-(trifluoromethyl)phenyl)sulfamoyl)-4-methoxybenzoic acid]
< 500 | COc1ccc(C(=O)O)cc1S(=O)(=O)Nc1cc(C(F)(F)F)ccc1N1CCC(O)(C2CC2)CC1 [Example 185, 3-(N-(2-(4-cyclopropyl-4-hydroxypiperidin-1-yl)-5-(trifluoromethyl)phenyl)sulfamoyl)-4-methoxybenzoic acid]
< 500 | COc1ccc(C(=O)O)cc1S(=O)(=O)Nc1cc(C(F)(F)F)ccc1N1CCC2(CCO2)CC1 [Example 186, 3-(N-(2-(1-oxa-7-azaspiro[3.5]nonan-7-yl)-5-(trifluoromethyl)phenyl)sulfamoyl)-4-methoxybenzoic acid]
< 5000 | COc1ccc(C(=O)O)cc1S(=O)(=O)Nc1cc(C(F)(F)F)ccc1N1CCC(OC(C)C)CC1 [Example 187, 3-(N-(2-(4-isopropoxypiperidin-1-yl)-5-(trifluoromethyl)phenyl)sulfamoyl)-4-methoxybenzoic acid]
< 5000 | COc1ccc(C(=O)O)cc1S(=O)(=O)Nc1cc(C(F)(F)F)ccc1N1CC[C@@H](O)C1 [Example 188, (R)-3-(N-(2-(3-hydroxypyrrolidin-1-yl)-5-(trifluoromethyl)phenyl)sulfamoyl)-4-methoxybenzoic acid]
> 5000 | CCC1(O)CN(c2ccc(C(F)(F)F)cc2NS(=O)(=O)c2cc(C(=O)O)ccc2OC)C1 [Example 189, 3-(N-(2-(3-ethyl-3-hydroxyazetidin-1-yl)-5-(trifluoromethyl)phenyl)sulfamoyl)-4-methoxybenzoic acid]
< 5000 | O=C(O)c1ccc(C(F)(F)F)c(S(=O)(=O)Nc2cc(C(F)(F)F)ccc2N2CCCCC2)c1 [Example 200, 3-(N-(2-(piperidin-1-yl)-5-(trifluoromethyl)phenyl)sulfamoyl)-4-(trifluoromethyl)benzoic acid]
< 500 | CCOc1ccc(C(=O)O)cc1S(=O)(=O)Nc1cc(C(F)(F)F)ccc1N1CCCCC1 [Example 201, 4-ethoxy-3-(N-(2-(piperidin-1-yl)-5-(trifluoromethyl)phenyl)sulfamoyl)benzoic acid]
< 500 | COc1ccc(C(=O)O)cc1S(=O)(=O)Nc1cc(Cl)c(Cl)cc1N1CCCCC1 [Example 202, 3-(N-(4,5-dichloro-2-(piperidin-1-yl)phenyl)sulfamoyl)-4-methoxybenzoic acid]
< 500 | CCc1ccc(C(=O)O)cc1S(=O)(=O)Nc1cc(C(F)(F)F)ccc1N1CCC(F)(F)CC1 [Example 203, 3-(N-(2-(4,4-difluoropiperidin-1-yl)-5-(trifluoromethyl)phenyl)sulfamoyl)-4-ethylbenzoic acid]
< 500 | CCc1ccc(C(=O)O)cc1S(=O)(=O)Nc1cc(C(F)(F)F)ccc1N1CCCC(F)(F)C1 [Example 204, 3-(N-(2-(3,3-difluoropiperidin-1-yl)-5-(trifluoromethyl)phenyl)sulfamoyl)-4-ethylbenzoic acid]
< 500 | CCc1ccc(C(=O)O)cc1S(=O)(=O)Nc1cc(C(F)(F)F)ccc1N1CCC(F)CC1 [Example 205, 4-ethyl-3-(N-(2-(4-fluoropiperidin-1-yl)-5-(trifluoromethyl)phenyl)sulfamoyl)benzoic acid]
